The NIST ThermoML archive (doi:10.1016/j.jct.2012.09.011)

Assay: cn = amount concentration of the nth substance listed, in mol/dm3
Details: 310.15 K, 101 kPa, Liquid, Taylor dispersion method

[Cl][Cd][Cl] [cadmium chloride] + O
Details	binary diffusion coefficient [m2/s]
c1 = 0	1.39e-09
c1 = 0.001	1.34e-09
c1 = 0.003	1.32e-09
c1 = 0.005	1.28e-09
c1 = 0.008	1.28e-09
c1 = 0.01	1.28e-09
c1 = 0.05	1.2e-09
c1 = 0.1	1.2e-09
c1 = 0.4	1.26e-09
